Read-outs that look alike come from different tables or passages of the source.
Columns and labels:
[1] = Mouse liver microsome stability; assay type: in vitro ADME; settings: liver microsomes
Method: Testing compound (1.5 μL) or reference compound (500 μM in 5% DMSO and 95% acetonitrile) was mixed with 18.75 μL of 20 mg/mL liver microsome (Corning) and 479.75 μL of potassium phosphate buffer (0.1 M potassium phosphate buffer, 1 mM EDTA, pH 7.4). The reaction was started by mixing 30 μL of the above mixture (prewarmed to 37 °C) with 15 μL of 6 mM NADPH stock solution (prewarmed to 37 °C). After incubating for 5, 15, 30, or 45 min, 135 μL of acetonitrile containing internal standard was added to stop the reaction. For 0 min, the compound and microsome mixture were mixed with acetonitrile first before adding NADPH. After quenching, the reaction mixture was centrifuged, and the supernatant was taken and diluted for LC-MS analysis.

[2] = Pharmacokinetic (PK) study in mice; assay type: in vivo, C57BL/6 male mice; settings: for bioavailability: C57BL/6, plasma, mouse
Method: Data are mean (±standard deviation (SD)) from three mice at each time point. […]
PK profiling was outsourced and undertaken by Shanghai ChemPartner Co., Ltd. All animal experiments performed were conducted in compliance with the Institutional Animal Care and Use Committee (IACUC) and the Office of Laboratory Animal Welfare (OLAW) guidelines. Six to eight week old C57BL/6 male mice purchased from Jihui Laboratory Animal Co., Ltd. were used in the study. […] The animals were restrained manually at the designated time points (0.083, 0.25, 0.5, 1, 2, 4, and 8 h); approximately, 110 μL of blood sample was collected via facial vein into K2EDTA tubes. Three mice per time point were used, resulting in a total of 21 mice for each administration route. The blood sample was put on ice and centrifuged at 2000g for 5 min to obtain the plasma sample within 15 min. The plasma, brain, and CSF samples were stored at approximately −70 °C until analysis. A 30 μL aliquot of plasma was added with 200 μL of internal standard (Glipozode, 40 ng/mL) in MeCN with 5% Citri. The mixture was then vortexed for 1 min and then centrifuged for 10 min at 5800 rpm. The supernatant (100 μL) was transferred to a new plate. The solution (1 μL) was injected into LC-MS/MS. LC-MS/MS instrument used: SCIEX LC-MS/MS-49 (Triple Quad 6500+). Data were analyzed by WinNonLin and Microsoft Excel.

Plasma stability assay = assay type: in vitro ADME; settings: mouse plasma, 37 °C; read-out: T1/2 in mouse plasma
Method: Frozen plasma was thawed at 37 °C and centrifuged at 3000 rpm for 8 min to remove clots, and the supernatant was used in the experiment. The pH of the plasma was recorded, and only the pH range between 7.4 and 8 was used. The plasma and compound solution were prewarmed to 37 °C. Ten microliters of prewarmed testing compound or reference compound (procaine) solution (20 μM in 0.05 mM sodium phosphate buffer (pH 7.4) with 0.5% BSA) was mixed with 90 μL of plasma at different time points to allow for 5, 15, 30, 45, and 60 min of incubation time. For 0 min, the plasma was mixed with vehicle only. Acetonitrile was added to the compound and plasma mixture to quench the reaction, and the resulting mixture was centrifuged (5594g for 15 min). The supernatant was taken and diluted before LC-MS analysis.

Caco-2 cell permeability = assay type: in vitro ADME; settings: human
Method: Caco-2 cells with transepithelial electrical resistance (TEER) (TEER = (resistance sample – resistance blank) × effective membrane area) = 450 ± 19 Ω cm^2were used for the experiment. Compounds were dissolved in the appropriate buffer (10 mM DMSO stock solutions were diluted with HBSS buffer to a final concentration of 10 μM testing compound and 0.4% DMSO, Lucifer Yellow was introduced in the apical side buffer to test the intactness of the monocell layer) and was applied to the apical or basolateral donor side for measuring A–B or B–A permeability (two replicates), respectively. The apical and basolateral plates were prewarmed to 37 °C before placing the apical plate onto the basolateral plate. After incubating at 37 °C for 90 min, the apical plate and basolateral plate were separated, and the donor or receiver samples were analyzed with UPLC-MS/MS.

[3] = Mouse hepatocyte stability; assay type: in vitro ADME; settings: mouse hepatocytes
Method: Fifty microliters of prewarmed hepatocytes (2 × 10^6 cells/mL) in suspension media (Krebs–Henseleit buffer (Sigma-Aldrich) containing 5.6 g/L HEPES) was mixed with 50 μL of prewarmed compound dosing solution (2 μM in Krebs–Henseleit buffer with 1% DMSO). After incubating at 37 °C for 15, 30, 60, or 120 min, 100 μL of acetonitrile containing internal standard was added to quench the reaction. For 0 min incubation, acetonitrile was mixed with hepatocytes first before adding the compound solution. After quenching, the mixture was shaken at a vibrator for 10 min (600 rpm/min) and then sonicated for 2 min before centrifugation (5594g for 15 min). The supernatant was taken and diluted for LC-MS analysis.

LRRK2-NanoLuc = target: T1, LRRK2-NanoLuc (Homo sapiens, UniProt Q5S007); assay: NanoBRET binary LRRK2 binding in HEK293 lysate; settings: compound alone, lysate of HEK293 cells, LRRK2 tracer
T1 construct: host or cells: HEK293
T1 sequence (Q5S007 whole entry): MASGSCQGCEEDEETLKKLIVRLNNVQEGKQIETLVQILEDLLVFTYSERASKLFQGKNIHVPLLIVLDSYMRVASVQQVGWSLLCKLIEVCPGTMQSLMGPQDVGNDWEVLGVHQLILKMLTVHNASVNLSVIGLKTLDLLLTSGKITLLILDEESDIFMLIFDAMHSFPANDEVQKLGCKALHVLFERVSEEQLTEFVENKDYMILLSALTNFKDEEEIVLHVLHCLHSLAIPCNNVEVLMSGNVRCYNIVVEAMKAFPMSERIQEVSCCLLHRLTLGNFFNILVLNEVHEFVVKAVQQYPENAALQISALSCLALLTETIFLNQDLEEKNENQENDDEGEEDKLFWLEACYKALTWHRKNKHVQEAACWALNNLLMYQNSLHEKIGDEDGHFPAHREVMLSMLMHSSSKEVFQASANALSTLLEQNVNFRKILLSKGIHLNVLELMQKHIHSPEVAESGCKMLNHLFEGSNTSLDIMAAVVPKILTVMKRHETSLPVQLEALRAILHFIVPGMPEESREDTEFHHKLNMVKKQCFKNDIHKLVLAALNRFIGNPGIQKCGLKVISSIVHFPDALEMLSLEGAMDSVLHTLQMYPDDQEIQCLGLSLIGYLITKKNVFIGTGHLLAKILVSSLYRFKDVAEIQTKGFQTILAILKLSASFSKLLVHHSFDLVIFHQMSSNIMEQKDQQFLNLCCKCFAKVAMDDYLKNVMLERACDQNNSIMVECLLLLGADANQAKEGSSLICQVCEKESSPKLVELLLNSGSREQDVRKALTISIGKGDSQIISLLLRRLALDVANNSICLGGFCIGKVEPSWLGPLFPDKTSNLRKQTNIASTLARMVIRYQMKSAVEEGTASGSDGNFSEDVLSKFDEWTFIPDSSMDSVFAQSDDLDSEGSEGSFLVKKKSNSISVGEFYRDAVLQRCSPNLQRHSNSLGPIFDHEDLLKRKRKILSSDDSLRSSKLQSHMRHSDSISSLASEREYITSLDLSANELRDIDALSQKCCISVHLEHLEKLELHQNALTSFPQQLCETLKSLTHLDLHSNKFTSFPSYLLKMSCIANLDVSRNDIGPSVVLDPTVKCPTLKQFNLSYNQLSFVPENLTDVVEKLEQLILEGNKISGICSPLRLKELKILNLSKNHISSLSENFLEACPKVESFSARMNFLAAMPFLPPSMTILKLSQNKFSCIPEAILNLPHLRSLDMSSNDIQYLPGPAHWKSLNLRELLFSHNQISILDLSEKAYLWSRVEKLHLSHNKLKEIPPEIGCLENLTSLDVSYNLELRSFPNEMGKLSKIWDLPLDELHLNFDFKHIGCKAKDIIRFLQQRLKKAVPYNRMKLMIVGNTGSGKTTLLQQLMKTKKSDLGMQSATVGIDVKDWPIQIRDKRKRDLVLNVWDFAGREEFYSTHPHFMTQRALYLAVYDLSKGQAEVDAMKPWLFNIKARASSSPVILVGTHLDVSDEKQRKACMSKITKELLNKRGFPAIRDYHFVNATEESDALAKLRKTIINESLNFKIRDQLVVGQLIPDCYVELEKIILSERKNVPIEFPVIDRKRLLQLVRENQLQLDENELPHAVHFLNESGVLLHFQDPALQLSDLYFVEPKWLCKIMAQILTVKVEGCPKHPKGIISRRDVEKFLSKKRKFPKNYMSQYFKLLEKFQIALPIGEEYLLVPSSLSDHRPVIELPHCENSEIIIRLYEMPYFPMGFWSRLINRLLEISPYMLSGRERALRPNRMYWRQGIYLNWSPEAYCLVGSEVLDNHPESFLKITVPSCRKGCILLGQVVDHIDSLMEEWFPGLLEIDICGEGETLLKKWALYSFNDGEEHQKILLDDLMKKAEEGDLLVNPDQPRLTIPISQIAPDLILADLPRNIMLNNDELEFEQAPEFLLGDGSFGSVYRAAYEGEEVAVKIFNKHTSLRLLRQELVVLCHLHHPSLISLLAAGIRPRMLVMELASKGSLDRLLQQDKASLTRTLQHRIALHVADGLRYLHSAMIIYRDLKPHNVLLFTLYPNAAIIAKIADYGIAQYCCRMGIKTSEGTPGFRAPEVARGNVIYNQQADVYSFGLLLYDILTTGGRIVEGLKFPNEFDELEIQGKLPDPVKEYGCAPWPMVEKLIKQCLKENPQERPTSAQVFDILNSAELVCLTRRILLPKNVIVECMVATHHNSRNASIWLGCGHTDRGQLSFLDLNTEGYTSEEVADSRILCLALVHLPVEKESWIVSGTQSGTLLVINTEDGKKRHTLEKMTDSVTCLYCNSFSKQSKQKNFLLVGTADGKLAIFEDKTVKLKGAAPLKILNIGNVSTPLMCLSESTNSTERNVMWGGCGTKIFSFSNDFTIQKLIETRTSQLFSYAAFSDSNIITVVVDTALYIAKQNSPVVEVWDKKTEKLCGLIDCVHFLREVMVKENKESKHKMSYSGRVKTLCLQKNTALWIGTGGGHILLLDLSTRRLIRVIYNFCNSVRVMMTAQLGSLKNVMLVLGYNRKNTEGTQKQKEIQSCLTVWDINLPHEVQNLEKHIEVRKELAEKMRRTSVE
Method: In the maximum signal control samples (DMSO control), DMSO was added instead of testing compounds.

[4] = male, C57BL/6, IP 30 mg/kg, mouse plasma
[5] = male, C57BL/6, IV 5 mg/kg, mouse plasma
[6] = male, C57BL/6, PO 30 mg/kg, mouse plasma

CNc1nc(Nc2ccc(C(=O)N3CCN(C[C@H]4CC[C@H](CSC(C)(C)[C@H](NC(=O)C5(F)CC5)C(=O)N5C[C@H](O)CC5C(=O)NCc5ccc(-c6scnc6C)cc5)CC4)CC3)cc2OC)ncc1Cl (stereo partly drawn) [XL01126, (2S,4R)-1-((R)-3-((((1R,4R)-4-((4-(4-((5-Chloro-4-(methylamino)pyrimidin-2-yl)amino)-3-methoxybenzoyl)piperazin-1-yl)methyl)cyclohexyl)methyl)thio)-2-(1-fluorocyclopropane-1-carboxamido)-3-methylbutanoyl)-4-hydroxy-N-(4-(4-methylthiazol-5-yl)benzyl)pyrrolidine-2-carboxamide]
CLint scaled at 1 µM ([1]; pH 7.4): 1490 mL/min/kg
half-life at 1 µM ([1]; pH 7.4, read-out: T1/2 in mouse liver microsome): 3.65 min
Kp ([2]; male, C57BL/6, mouse, brain, other: IV, mice, single dose IV, IP or PO, read-out: brain-to-plasma ratio): < 0.035
bioavailability ([2]; male, IP 30 mg/kg, read-out: F): 29.2%
bioavailability ([2]; male, PO 30 mg/kg, read-out: F, oral bioavailability): 15%
AUC(0-inf) [2, 4]: 64100 ng·h/mL
AUC(0-t) [2, 4]: 41400 ng·h/mL
Cmax [2, 4]: 7700 ng/mL
Tmax [2, 4]: 0.25 h
half-life [2, 4]: 5.2 h
AUC(0-inf) [2, 5]: 24000 ng·h/mL
AUC(0-t) [2, 5]: 23700 ng·h/mL
MRT [2, 5]: 2.45 h
clearance [2, 5]: 3.47 mL/min/kg
half-life [2, 5]: 1.52 h
Vd ([2]; male, C57BL/6, IV 5 mg/kg, mouse plasma, read-out: Vss): 0.511 L/kg
AUC(0-inf) [2, 6]: 109000 ng·h/mL
AUC(0-t) [2, 6]: 21300 ng·h/mL
Cmax [2, 6]: 3620 ng/mL
Tmax [2, 6]: 2 h
half-life [2, 6]: 21.9 h
presence in brain tissues and CSF (in words) ([2]; mice, single dose IV, IP or PO): detected in brain tissues and CSF
half-life at 2 µM (Plasma stability assay): 1.8 h
Papp A→B at 90 min, 10 µM (Caco-2 cell permeability; A–B): < 0.74 ×10⁻⁶ cm/s
Papp B→A at 90 min, 10 µM (Caco-2 cell permeability; B–A): < 1.43 ×10⁻⁶ cm/s
CLint scaled at 1 µM [3]: 26 mL/min/kg
half-life at 1 µM ([3]; read-out: T1/2 in mouse hepatocytes): 5.24 h
IC50 (LRRK2-NanoLuc): 2000 nM
